Test results: paper PMC6689431 (Biochimica et biophysica acta. Biomembranes, 2019)

Assays:
[1] = Fluorescence intensity of TAMRA-labeled peptides at different pH / buffers; format: physicochemical; settings: 0.2 µM peptide; for fluorescence intensity in Tris buffer pH 8: 50 mM Tris pH 8, λex 544/λem 590 nm, mean ± SD
[2] = Fluorescence intensity of TAMRA-labeled peptides with detergents; format: physicochemical; settings: 0.2 µM peptide, 50 mM Tris pH 8 + 0.1% (w/v) SDS, no cells, λex 544/λem 590 nm

^*-GALFLGWLGAAGSTMGAWSQPKKKRKV-ANSRWPTSII [*MPG-iCAL36]
decrease of fluorescence intensity, citric acid versus Tris buffer, both pH 8 [1]: 36% | fluorescence intensity in Tris buffer pH 8 [1]: 68,132 ± 5,731 | increase of fluorescence intensity in Tris+SDS compared to Tris buffer alone [2]: 7 ×

^*-RLWRLLWRLWRRLWRLLR-ANSRWPTSII [*C6M1-iCAL36]
increase of fluorescence intensity in Tris+SDS compared to Tris buffer alone [2]: 9 ×

^*-GRKKRRQRRRPPQ-ANSRWPTSII [*Tat-iCAL36]
fluorescence intensity in Tris buffer pH 8 [1]: 103,693 ± 2,848

^*-LLRLLRWWWRLLRLL-ANSRWPTSII [*WRAP5-iCAL36]
increase of fluorescence intensity in Tris+SDS compared to Tris buffer alone [2]: 15 ×
